Columns and labels:
Assay type in all cases: cell-based, human
UAG-MS2 editing reporter = assay: Stop codon editing reporter (mCherry / mNeonGreen) co-transfected with ADAR variants, flow cytometry (median mNeonGreen to mCherry); details: n=1
Text: For the reporter system, the inventors used the fluorescent protein-epitope tag tandem fusions of mCherry-FLAG and HA-mNeonGreen as the upstream and downstream coding regions. Without DD editing activity, translation is terminated after mCherry-FLAG. Coexpression with MCP-ADAR2-DD was hypothesized to lead to binding of MCP-DD, stop codon UAG editing to UIG, and expression of mNeonGreen (FIG. 1B).
(§1) HEK 293 FT cells were co-transfected with plasmids expressing the reporter containing 2 UAG stop codons in the hairpin and a pcDNA3 construct encoding a fusion protein composed of MCP, ADAR2-DD (E488Q), and TagBFP.
Two days later, fluorescence microscopy images were taken of the cell populations. […] The inventors repeated the experiment and analyzed the samples by flow-cytometry.
The inventors transiently co-transfected HEK 293 FT cells with the mCherry-mNeonGreen reporter, MCP-ADAR2-DD variants containing different configurations of ALFA-tag insertions and NbALFA fusions, and uncaging constructs containing miRFP670 fused to ALFA. Without wishing to be bound by theory, it was hypothesized that the intramolecular interaction would inhibit the ADAR2-DD, but that the ALFA tag on the miRFP670 would displace the lower strength ALFA variants (PE and 78), and perhaps at high enough concentrations displace the intramolecular ALFA, and lead to increased editing.
The inventors then made an ADAR-DD variant with an inserted TEV protease cut site (amino acids ENLYFQG, SEQ ID NO: 286) between the C-terminus of ADAR2-DD and the N-terminus of SpyCatcher (FIG. 5C). The inventors co-transfected HEK 293 FT cells with the reporter construct, the ADAR-DD TEVcs variant, and the TEV protease and 48 hours later analyzed the transfected cells via flow cytometry (FIG. 5D-5E).
Mutated versions were then cloned and co-transfected with an editing reporter in the absence and presence of A-1331852, and absolute background and fold change upon drug addition were determined by flow cytometry (see e.g., FIG. 22d and table 11).

[1] = tested on: mRNA reporters containing different number of stop codons and/or MS2 elements; assay: Stop codon editing assay by Western blot; details: HEK293FT cells; reporters with different numbers of stop codons and RNA elements
Text: as §1

GFP-GPI reporter = assay: AUA to AUI editing creating upstream in-frame signal sequence and HA tag, live imaging and HA staining
Text: To test this, a reporter construct was designed that contained: an MS2-A editable AUA start codon upstream of the murine IgGκ signal sequence and HA epitope tag (SS-HA), an in frame AUG start codon, GFP, and the glycosylphosphatidylinositol (GPI) anchor sequence from Thymocyte differentiation antigen 1 (GPI in diagram) (see e.g., FIG. 27a). With this reporter, in the absence of editing, the majority of the translated product will be from the AUG codon directly upstream of GFP. This will lead to the translation product residing in the cytoplasm with a non-functional GPI anchor (as this post-translational modification (PTM) must occur in the endoplasmic reticulum (ER) lumen). Upon ADAR editing of the upstream AUA to AUI, translation will initiate upstream of the signal sequence, leading to co-translational translocation of HA-GFP-GPI into the ER lumen, the addition of the GPI anchor PTM, and presentation of HA-GFP on the plasma membrane (see e.g., FIG. 27b). With this construct, the editing can be monitored by either by microscopy (looking for ER & plasma membrane localization) or directly by immunostaining for the HA-tag.
HEK cells were co-transfected with the GFP-GPI reporter and either filler DNA, MCP-dADAR, or MCP-ADAR. A GFP-GPI with a functional start codon before the secretion signal was also transfected as a positive control (GFP-GPI Control). One day after transfection, HEK cells were imaged live, and then fixed and stained for HA tag with a primary anti-HA antibody and a secondary antibody that was conjugated to ALEXAFLUOR 647 (AF647).

T2A (G18R) construct = assay: Sense codon editing (AGG to IGG) of T2A (G18R), UAS-H2B-mCherry reporter cells, flow cytometry; details: 30 ng ADAR construct, n=3
Text: To test inducible ADAR recoding of a protein's amino acid composition, a construct was designed that contained: a CD8 signal peptide, an HA epitope tag, the self-labeling Halo Tag, a mutant variant of the thosea asigna virus 2A self-cleaving peptide that is defective for ribosome skipping (Gly 18Arg mutation), the DNA binding domain of Gal4, and a 4× repeat of the transcriptional activation domain from herpes virus (VP64) (see e.g., FIG. 37a). The penultimate glycine in 2A peptides is invariant (see e.g., FIG. 37b) and any mutation leads to defective ribosome skipping. The codon for the G18R residue (AGG) is in a dsRNA hairpin with the high affinity MS2-C motif, which acts as a substrate for targeted MCP-ADAR. In the absence of ADAR editing, the defective T2A sequence will lead to the topological sequestering of the Gal4-VP64 transcription factor in the ER lumen due to the fusion to the secreted HaloTag (see e.g., FIG. 37c). Upon ADAR editing of the Arg18 codon to glycine (AGG to IGG), the T2A regains the function of ribosome skipping. This leads to the protein domains downstream of the T2A sequence to be translated as a separate polypeptide in the cytoplasm, whereby the GAL4-VP64 transcription factor translocate to the nucleus and turn on the expression of a fluorescent H2B-mCherry reporter (see e.g., FIG. 37c).
To test this, an in-house clonal HEK293FT cell line that contains an integrated UAS-H2B-mCherry reporter was co-transfected with the editable T2A (also called T2A*) construct (3 ng, 0.3 ng and 0.03 ng) and cither MCP-dADAR or MCP-ADAR (30 ng). A GAL4-VP64 positive control was also transfected into HEK cells. One day post-transfection, cells were lifted and analyzed by flow cytometry. Transfected cells were gated by TagBFP, the median H2B-mCherry fluorescence for the population was calculated and H2B-mCherry positive populations within the transfected cells were determined by the percentage of cells above 0.5% of non-transfected control cells per replicate (n=3) by FLOWJO.

Substance: MCP-linker-ADAR2(E488Q)-TagBFP [MCP-ADAR]
- Fold Change (UAG-MS2 editing reporter; 1 μM vs 0 μM A-1331852, flow cytometry): 1.03
- Flow Cytometry Values, 0 μM (median of the ratio of mNeonGreen to mCherry) (UAG-MS2 editing reporter; HEK cells co-transfected with ADAR reporter and ADAR variant, 0 μM A-1331852, two days after transfection, gated by BFP): 0.9853
- Flow Cytometry Values, 1 μM (median of the ratio of mNeonGreen to mCherry) (UAG-MS2 editing reporter; HEK cells co-transfected with ADAR reporter and ADAR variant, 1 μM A-1331852, two days after transfection, gated by BFP): 1.0147
- off-target editing of stop-codon reporters, Western blot (HA-mNeonGreen) [1]: Almost no off-target editing
- HA tag staining of cells with AUA construct (GFP-GPI reporter; fixed, permeabilized, anti-HA and AF647 secondary): robust staining
- cellular distribution of GFP from AUA-SS-GFP-GPI, live imaging (GFP-GPI reporter; one day after transfection): looked very similar
- population expressing any H2B-mCherry compared to dADAR, 0.03 ng T2A* (T2A (G18R) construct; 0.03 ng T2A* construct): significantly higher
- population expressing any H2B-mCherry compared to dADAR, 0.3 ng T2A* (T2A (G18R) construct; 0.3 ng T2A* construct): significantly higher
- median H2B-mCherry expression compared to inactive MCP-dADAR control (T2A (G18R) construct; 3 ng T2A* construct, one day post-transfection): significant increase

Source: US12565665B2, “Compositions and methods for controlled mRNA translation and stability” (TRUSTEES OF BOSTON UNIVERSITY, priority 2022, dated 2026)
